{"source": "patent US9918970B2", "about": "“Pharmaceutical composition comprising solifenacin” (Astellas Pharma Inc., priority 2010, dated 2018)", "origin": "cited, not measured here", "biological_target": "muscarinic M3 receptor (Homo sapiens, UniProt P20309)", "sequence (P20309 whole entry)": "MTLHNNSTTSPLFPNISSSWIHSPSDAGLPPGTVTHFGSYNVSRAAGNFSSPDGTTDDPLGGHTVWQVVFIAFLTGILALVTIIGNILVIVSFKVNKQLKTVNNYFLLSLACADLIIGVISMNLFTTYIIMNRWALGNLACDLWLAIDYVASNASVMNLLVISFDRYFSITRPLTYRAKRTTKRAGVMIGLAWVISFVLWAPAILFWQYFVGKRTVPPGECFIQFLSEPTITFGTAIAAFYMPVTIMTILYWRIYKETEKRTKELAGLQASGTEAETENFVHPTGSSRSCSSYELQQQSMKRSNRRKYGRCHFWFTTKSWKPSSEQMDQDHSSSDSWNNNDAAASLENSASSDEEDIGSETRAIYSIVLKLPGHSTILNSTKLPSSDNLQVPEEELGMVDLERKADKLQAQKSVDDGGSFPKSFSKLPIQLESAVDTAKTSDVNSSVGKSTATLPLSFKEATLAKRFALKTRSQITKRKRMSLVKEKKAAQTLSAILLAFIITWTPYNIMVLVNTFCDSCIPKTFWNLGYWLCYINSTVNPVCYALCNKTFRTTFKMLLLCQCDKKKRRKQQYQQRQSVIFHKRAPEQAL"}
{"smiles": "O=C(O[C@H]1CN2CCC1CC2)N1CCc2ccccc2[C@@H]1c1ccccc1", "note": "[solifenacin, (R)-quinuclidin-3-yl (S)-1-phenyl-1,2,3,4-tetrahydroisoquinoline-2-carboxylate]", "values": [{"measurement": "antagonistic activity against muscarinic M3 receptor (in words)", "value": "excellent selective antagonistic activity"}, {"measurement": "selectivity for the M3 receptor as compared with the M2 receptor (in words)", "setting": "M3 in smooth muscle, gland tissues, M2 in heart", "value": "higher selectivity"}]}
